This is an account of results in patent publication US10766940B2, “Brain penetrant amylin receptor based peptides for Alzheimer's disease” (The Governors of the University of Alberta, priority 2016, dated 2020).

Series [1] has as its system TgCRND8 and wild-type mice. The series can be described thus: Daily monitoring for treatment-related toxicity during chronic icv infusion. The settings on record: chronic icv infusion 5-6 months. Type of series: in vivo, mouse. The protocol: (§1) A microcannula was stereotaxically inserted into the right cerebral ventricle (0.12 right lateral and 0.06 posterior to bregma, 3 mm deep) of isofluorane-anesthetized mice, and connected to an osmotic pump (Alzet; model 2004) implanted subcutaneously on the back of the mouse. The pump infused a solution of either aCSF or AC253 in aCSF into the ventricle at a rate of […] to yield an estimated concentration of 1 μM AC253 in the mouse CSF at equilibrium based upon the known CSF dynamics in the mouse brain (Di Pardo et al., 2012). The pump reservoir was replaced every 28 days for a total of 5-6 months. Animals were monitored on a daily basis for signs of treatment-related toxicity, such as poor grooming, lethargy, loss of bodyweight, and abnormal behavior. After completion of medication and behavioral tests, all mice were killed with an overdose of isoflourane anesthetic, perfused transcardially with saline, and the brains were harvested. The left hemisphere per animal was frozen for biochemical analysis (Western blot, ELISA), and the right hemisphere retained for histological analysis.

Series [2] concerns APP, CTR, RAMP3, synapsin 1, synaptophysin, Iba1 in TgCRND8 mice brains. The series is described as follows: Western blot of brain homogenates after 5 months icv AC253. Type of series: in vivo, mouse. As to the method:
as §1
Frozen brain tissues were homogenized in cold RIPA buffer with protease inhibitors and proteins were isolated and measured using BCA assay (BioRad, Mississauga, ON, Canada). Proteins were loaded at 50 μg per lane on a 12% polyacrylamide gel for CTR, RAMP3, NeuN, synapsin1, phospho-synapsin, and Iba1, or 4-20% polyacrylamide gradient gel (BioRad) for APP. Proteins were transferred to nitrocellulose membrane, and blocked with LiCOR blocking buffer. Blots were incubated with primary antibodies overnight at 4° C. on a shaker. Primary antibody used for CTR (1:1000 rabbit; Thermo Scientific), RAMP3 (1:1000 rabbit; Santa Cruz Biotechnology), 6E10 for APP (1:5000 mouse; 6E10; Covance), NeuN (1:1000, rabbit, Abcam), synapsin-1 (1:1000 rabbit, Abcam), synaptophysin (1:1000, rabbit, Abcam), phosphosynapsin (1:1000, rabbit, Abcam), Iba1 (1:1000, rabbit, Wako), β-tubulin (1:1000, rabbit, Cell Signaling Technology, Inc.) and β-actin (1:10000 mouse, Sigma-Aldrich). IRDye 800CW goat anti-rabbit and IRDye 680CW goat anti-mouse were used as secondary antibodies. Blots were imaged using LiCor Odyssey image system.

Series [3] has as its system Aβ plaques in TgCRND8 mice brains. The series is described as follows: Immunofluorescent-histological staining of Aβ plaques (6E10). The class given is in vivo, mouse. The settings on record: Tg AC253 vs Tg CSF. The protocol:
as §1, with “After completion of medication and behavioral tests, all mice were killed with an overdose of isoflourane anesthetic, perfused transcardially with saline, and the brains were harvested. The left hemisphere per animal was frozen for biochemical analysis (Western blot, ELISA), and the right hemisphere retained for histological analysis.” left out
For immunostaining, […] thick brain sections were cut using a Cryostat (Leica CM1850), fixed with 4% paraformaldehyde in PBS, permeabilized using 0.3% Triton X-100 and stained with Aβ (6E10), Iba1, and CTR antibody, followed by fluorescent secondary antibody (goat anti mouse Alexa Fluor-546 and donkey anti rabbit Alexa Fluor-488) and mounted in DAPI mounting media. Fluorescent microscopy images were acquired with an Axioplan-2 fluorescence microscope with AxioVision software (Carl Zeiss Ltd., Toronto, ON, Canada). Amyloid plaque size and area were analyzed with Image J.

Series [4] can be described thus: Lipophilicity, shake flask 1-octanol/water partition. The class given is physicochemical. The protocol: Peptides hydrophobicity was determined using the shake flask method and 1-octanol/water partition coefficient (log Po/w) was determined. […] Peptide concentration (area) in both phases (1-octanol and water) were analyzed by RP-HPLC. The final log Po/w value was calculated by dividing the concentration (C) of the peptide in the two phases as presented by the area under the peak (partition coefficients=C1-octanol/Cwater).

For series [5], the target named is T1, AMY3 receptor (Homo sapiens, UniProt O60896+P30988).
T1 construct: expressed in transfected cells; AMY3-293 / AMY3-HEK)
T1 sequence (P30988 25-474): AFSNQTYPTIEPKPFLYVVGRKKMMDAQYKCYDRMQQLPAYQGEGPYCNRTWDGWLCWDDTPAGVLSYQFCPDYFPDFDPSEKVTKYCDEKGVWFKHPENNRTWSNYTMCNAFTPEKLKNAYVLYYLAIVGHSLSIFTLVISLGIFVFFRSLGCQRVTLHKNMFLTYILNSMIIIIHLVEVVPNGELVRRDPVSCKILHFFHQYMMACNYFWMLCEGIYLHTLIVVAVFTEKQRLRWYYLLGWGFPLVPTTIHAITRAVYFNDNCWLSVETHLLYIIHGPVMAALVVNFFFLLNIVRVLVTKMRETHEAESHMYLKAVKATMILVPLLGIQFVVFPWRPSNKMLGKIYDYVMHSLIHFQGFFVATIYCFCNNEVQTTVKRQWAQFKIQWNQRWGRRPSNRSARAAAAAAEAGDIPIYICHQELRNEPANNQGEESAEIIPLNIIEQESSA
T1 sequence (O60896 24-148 partner): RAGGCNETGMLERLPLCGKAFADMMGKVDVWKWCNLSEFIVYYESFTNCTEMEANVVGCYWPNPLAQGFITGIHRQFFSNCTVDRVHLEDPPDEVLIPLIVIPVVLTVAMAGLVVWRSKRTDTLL
The series is described as follows: Inhibition of hAmylin-evoked cAMP in AMY3-expressing HEK293 cells. Type of series: cell-based. The note with it: AMY3-HEK cells. As to the method: a) To investigate peptides amylin receptor affinity, GFP-positive HEK293 cells that stably expressed AMY3 receptor (AMY3-293) as previously reported (Fu et al., 2012) were used. For control, GFP-positive HEK293 wild type cells were used. HEK293 cells were cultured in DMEM (Invitrogen) with 10% FBS (Invitrogen) and grown at 37° C., 5% C02. For cAMP measurements, AMY3-293 cells were plated on 24-well plates overnight. Cells were stimulated for 30 minutes with hAmylin over a concentration range (1 pM-10 μM). Cellular cAMP levels were measured using a parameter cyclic AMP assay kit (R&D Systems) according to the manufacturer's instructions. For in-cell Western blot cAMP quantification, mouse monoclonal anti-cAMP (R&D Systems) was used as a primary antibody, and IRDye 800 goat anti mouse antibody (LI-COR) was used as a secondary antibody. Plates were imaged using an Odyssey Infrared Imaging System (LI-COR), and the integrated intensity was normalized to the total cell number on the same well. Data was plotted, and non-linear regression was fitted with four parameters using Prism software (GraphPad Software, La Jolla, Calif.).
e) For cAMP measurements, AMY3-293 cells were plated on 24-well plates overnight. […] Cellular cAMP levels were measured using a parameter cyclic AMP assay kit (R&D Systems) according to the manufacturer's instructions. […]

Structures are written as SMILES.

In the case of `CC(C)C[C@H](NC(=O)[C@H](CCCNC(=N)N)NC(=O)CNC(=O)[C@@H](N)CC(C)C)C(=O)N[C@@H](CO)C(=O)N[C@@H](CCC(N)=O)C(=O)N[C@@H](CCC(=O)O)C(=O)N[C@@H](CC(C)C)C(=O)N[C@@H](Cc1c[nH]cn1)C(=O)N[C@@H](CCCNC(=N)N)C(=O)N[C@@H](CC(C)C)C(=O)N[C@@H](CCC(N)=O)C(=O)N[C@H](C(=O)N[C@@H](Cc1ccc(O)cc1)C(=O)N1CCC[C@H]1C(=O)N[C@@H](CCCNC(=N)N)C(=O)N[C@H](C(=O)N[C@@H](CC(N)=O)C(=O)N[C@H](C(=O)NCC(=O)N[C@@H](CO)C(=O)N[C@@H](CC(N)=O)C(=O)N[C@H](C(=O)N[C@@H](Cc1ccc(O)cc1)C(N)=O)[C@@H](C)O)[C@@H](C)O)[C@@H](C)O)[C@@H](C)O` [AC253], the “signs of off-target effects or changes in body weight” value in series [1] was “none of the mice receiving AC253 showed any signs of off-target effects”. In addition, the “amylin receptor (CTR, RAMP3 proteins) expression levels in the brain” value in series [2] (Tg AC253 vs Tg CSF) is on record as “no noticeable difference”. Further, in series [2] (Tg AC253 vs Tg CSF controls), the “increase in expression level of synapsin 1” value is listed as 40% and the “increase in expression level of synaptophysin” value is recorded as 30%. Besides, the “APP expression (Western blot)” value in series [2] (Tg AC253 vs Tg CSF, 5 months icv) was “no significant difference”. Besides, the “reduction of expression levels of Iba-1 (microglial marker)” value in series [2] (Tg-AC253 vs Tg-CSF) came out at 50%. In series [3], the “number of Aβ plaques, total area of Aβ-positive profiles” value is “did not reveal significant difference”. In series [4], this molecule returned a Partition coefficient of 1.05 and a logP of -1.2. In addition, the “block of hAmylin evoked cAMP increase” value in series [5] is given as “blocked the hAmylin evoked cAMP increase in a dose-dependent manner”.

As a reminder, the logP is a log measure of how a compound divides between an organic and an aqueous phase.
